# Measurements reported in patent US10435399B2, “HDAC6 inhibitory heterocyclic compound” (TAKEDA PHARMACEUTICAL COMPANY LIMITED, priority 2017, dated 2019).
# Molecular target: T1, HDAC6 enzyme (Homo sapiens, UniProt Q9UBN7)
# T1 construct: transducing full length HDAC6 gene into Sf-9 insect cells; GST; purchased SignalChem; host or cells: Sf-9 insect cells
# T1 sequence (Q9UBN7 1-1215): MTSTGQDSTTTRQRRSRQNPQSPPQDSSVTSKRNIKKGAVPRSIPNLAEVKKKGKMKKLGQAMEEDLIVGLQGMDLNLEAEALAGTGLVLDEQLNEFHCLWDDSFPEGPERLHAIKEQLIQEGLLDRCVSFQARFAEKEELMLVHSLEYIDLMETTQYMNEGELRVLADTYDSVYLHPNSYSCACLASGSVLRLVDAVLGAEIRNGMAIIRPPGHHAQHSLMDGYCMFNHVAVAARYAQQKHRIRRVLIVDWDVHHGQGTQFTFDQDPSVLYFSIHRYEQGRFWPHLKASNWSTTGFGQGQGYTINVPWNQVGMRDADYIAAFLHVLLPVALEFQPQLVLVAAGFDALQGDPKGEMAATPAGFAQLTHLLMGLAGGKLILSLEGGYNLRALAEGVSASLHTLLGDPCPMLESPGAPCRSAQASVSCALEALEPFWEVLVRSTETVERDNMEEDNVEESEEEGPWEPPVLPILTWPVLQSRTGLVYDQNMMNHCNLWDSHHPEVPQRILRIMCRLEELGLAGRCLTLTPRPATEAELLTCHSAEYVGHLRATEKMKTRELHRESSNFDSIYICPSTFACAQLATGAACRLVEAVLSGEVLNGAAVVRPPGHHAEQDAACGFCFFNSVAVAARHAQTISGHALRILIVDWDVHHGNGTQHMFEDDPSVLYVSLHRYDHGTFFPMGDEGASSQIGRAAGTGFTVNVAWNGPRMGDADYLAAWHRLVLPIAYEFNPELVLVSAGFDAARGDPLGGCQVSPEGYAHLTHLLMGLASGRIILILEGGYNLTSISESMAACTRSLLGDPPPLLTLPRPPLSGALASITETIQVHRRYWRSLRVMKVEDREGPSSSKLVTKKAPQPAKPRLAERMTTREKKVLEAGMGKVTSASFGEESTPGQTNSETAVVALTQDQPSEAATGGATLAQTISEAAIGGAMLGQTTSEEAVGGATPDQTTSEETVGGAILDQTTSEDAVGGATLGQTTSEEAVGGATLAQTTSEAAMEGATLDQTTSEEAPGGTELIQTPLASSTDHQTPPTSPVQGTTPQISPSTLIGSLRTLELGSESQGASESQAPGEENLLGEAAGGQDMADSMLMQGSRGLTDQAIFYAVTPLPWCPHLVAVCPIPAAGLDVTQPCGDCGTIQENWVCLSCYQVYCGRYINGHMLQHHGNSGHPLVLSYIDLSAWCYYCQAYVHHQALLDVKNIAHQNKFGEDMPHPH
# Test: HDAC6 enzyme inhibitory activity (HDAC-Glo I/II Assay kit)
# Type: biochemical
# Details: 10 μM; wells without enzyme = 100% inhibition; read-out: HDAC6 inhibitory rate (%) (10 μM)
# Summary of the method: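 Sf-9-derived GST-purified full-length HDAC6 + cpd, 60 min RT, 24 mM Tris pH 7.5/0.6 mM glutathione/0.01% Tween-20; add HDAC-Glo substrate-developer, 20 min RT; luminescence. No-enzyme = 100% inhibition.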
row,inhibition at 10 µM,Compound
1,98%,"O=C1c2cc(-c3nnc(C(F)F)o3)cc(F)c2CN1C[C@H]1COCCN1CC(F)(F)C(F)F [Example 228, 6-(5-(difluoromethyl)-1,3,4-oxadiazol-2-yl)-4-fluoro-2-(((3S)-4-(2,2,3,3-tetrafluoropropyl)morpholin-3-yl)-methyl)isoindolin-1-one]"
2,100%,"N#Cc1ccccc1-c1ccccc1N1Cc2ccc(-c3nnc(C(F)F)o3)cc2C1=O [Example 230, 2′-(6-(5-(difluoromethyl)-1,3,4-oxadiazol-2-yl)-1-oxo-1,3-dihydro-2H-isoindol-2-yl)-biphenyl-2-carbonitrile]"
3,98%,"N[C@@H]1CCCC[C@H]1N1Cc2ncc(-c3nnc(C(F)F)o3)cc2C1=O [Example 231, 6-((1R,2R)-2-aminocyclohexyl)-3-(5-(difluoromethyl)-1,3,4-oxadiazol-2-yl)-6,7-dihydro-5H-pyrrolo[3,4-b]pyridin-5-one]"
4,98%,"O=C(O[C@@H]1CCCC[C@H]1N1Cc2ccc(-c3nnc(C(F)F)o3)cc2C1=O)N1CCC1 [Example 232, (1R,2R)-2-(6-(5-(difluoromethyl)-1,3,4-oxadiazol-2-yl)-1-oxo-1,3-dihydro-2H-isoindol-2-yl)-cyclohexyl azetidine-1-carboxylate]"
5,100%,"O=C(O[C@@H]1CCCC[C@H]1N1Cc2ccc(-c3nnc(C(F)F)o3)cc2C1=O)N1CCCC1 [Example 233, (1R,2R)-2-(6-(5-(difluoromethyl)-1,3,4-oxadiazol-2-yl)-1-oxo-1,3-dihydro-2H-isoindol-2-yl)-cyclohexyl pyrrolidine-1-carboxylate]"
6,98%,"O=C1c2cc(-c3nnc(C(F)F)o3)ccc2CN1CCOCc1ccccc1 [Example 234, 2-(2-(benzyloxy)ethyl)-6-(5-(difluoromethyl)-1,3,4-oxadiazol-2-yl)isoindolin-1-one]"
7,99%,"O=C1c2cc(-c3nnc(C(F)F)o3)cnc2CN1[C@@H]1CCCC[C@H]1NC(=O)C1(C(F)F)CC1 [Example 235, 1-(difluoromethyl)-N-((1R,2R)-2-(3-(5-(difluoromethyl)-1,3,4-oxadiazol-2-yl)-5-oxo-5,7-dihydro-6H-pyrrolo[3,4-b]pyridin-6-yl)-cyclohexyl)cyclopropane-carboxamide]"
8,98%,"O=C1c2cc(-c3nnc(C(F)F)o3)cc(F)c2CN1[C@@H]1CCCC[C@H]1NC(=O)C1(C(F)F)CC1 [Example 236, 1-(difluoromethyl)-N-((1R,2R)-2-(6-(5-(difluoromethyl)-1,3,4-oxadiazol-2-yl)-4-fluoro-1-oxo-1,3-dihydro-2H-isoindol-2-yl)-cyclohexyl)cyclopropanecarbox-amide]"
9,100%,O=C1c2cc(-c3nnc(C(F)F)o3)cnc2CN1[C@@H]1CCCC[C@H]1NC(=O)C(F)(F)C1CC1 [Example 237]
10,100%,"O=C1c2cc(-c3nnc(C(F)F)o3)ccc2CN1c1ccccc1-c1ccccn1 [Example 238, 6-(5-(difluoromethyl)-1,3,4-oxadiazol-2-yl)-2-(2-(pyridin-2-yl)phenyl)isoindolin-1-one]"
11,99%,"O=C1c2ccc(-c3nnc(C(F)F)o3)cc2C(=O)N1C[C@H]1COCCN1S(=O)(=O)C1CC1 [Example 239, 2-(((3S)-4-(cyclopropylsulfonyl)-morpholin-3-yl)methyl)-5-(5-(difluoromethyl)-1,3,4-oxadiazol-2-yl)-1H-isoindole-1,3(2H)-dione]"
12,98%,"O=C1c2cc(-c3nnc(C(F)F)o3)cnc2CN1c1ccccc1Br [Example 240, 6-(2-bromophenyl)-3-(5-(difluoro-methyl)-1,3,4-oxadiazol-2-yl)-6,7-dihydro-5H-pyrrolo[3,4-b]-pyridin-5-one]"
13,91%,"O=C1c2cc(-c3nnc(C(F)F)o3)ccc2CN1c1ccc(Cl)cc1Br [Example 241, 2-(2-bromo-4-chlorophenyl)-6-(5-(difluoromethyl)-1,3,4-oxadiazol-2-yl)isoindolin-1-one]"
14,101%,"O=C1c2cc(-c3nnc(C(F)F)o3)cc(F)c2CN1[C@@H]1CCCC[C@H]1NS(=O)(=O)C1CC1 [Example 242, N-((1R,2R)-2-(6-(5-(difluoro-methyl)-1,3,4-oxadiazol-2-yl)-4-fluoro-1-oxo-1,3-dihydro-2H-isoindol-2-yl)cyclohexyl)-cyclopropanesulfonamide]"
15,99%,"N#Cc1cccc(-c2ccccc2N2Cc3ncc(-c4nnc(C(F)F)o4)cc3C2=O)c1 [Example 243, 2′-(3-(5-(difluoromethyl)-1,3,4-oxadiazol-2-yl)-5-oxo-5,7-dihydro-6H-pyrrolo[3,4-b]pyridin-6-yl)biphenyl-3-carbonitrile]"
16,101%,O=C1c2cc(-c3nnc(C(F)F)o3)cc(F)c2CN1[C@@H]1CCCC[C@H]1NS(=O)(=O)CC(F)(F)F [Example 244]
17,101%,"O=C1c2cc(-c3nnc(C(F)F)o3)ccc2CN1[C@@H]1CCCC[C@H]1NS(=O)(=O)CC(F)(F)F [Example 245, N-((1R,2R)-2-(6-(5-(difluoro-methyl)-1,3,4-oxadiazol-2-yl)-1-oxo-1,3-dihydro-2H-isoindol-2-yl)cyclohexyl)-2,2,2-trifluoro-ethanesulfonamide]"
18,100%,"O=C1c2cc(-c3nnc(C(F)F)o3)ccc2CN1[C@@H]1CCCC[C@H]1NS(=O)(=O)C1CC1 [Example 246, N-((1R,2R)-2-(6-(5-(difluoro-methyl)-1,3,4-oxadiazol-2-yl)-1-oxo-1,3-dihydro-2H-isoindol-2-yl)cyclohexyl)cyclopropane-sulfonamide]"
19,94%,"O=C1c2cc(-c3nnc(C(F)F)o3)ccc2CN1c1ccc(F)cc1Br [Example 247, 2-(2-bromo-4-fluorophenyl)-6-(5-(difluoromethyl)-1,3,4-oxadiazol-2-yl)isoindolin-1-one]"
20,100%,"N#Cc1cccc(-c2cc(Cl)ccc2N2Cc3ccc(-c4nnc(C(F)F)o4)cc3C2=O)c1 [Example 248, 5′-chloro-2′-(6-(5-(difluoro-methyl)-1,3,4-oxadiazol-2-yl)-1-oxo-1,3-dihydro-2H-isoindol-2-yl)biphenyl-3-carbonitrile]"
21,100%,"N#Cc1cccc(-c2cc(F)ccc2N2Cc3ccc(-c4nnc(C(F)F)o4)cc3C2=O)c1 [Example 249, 2′-(6-(5-(difluoromethyl)-1,3,4-oxadiazol-2-yl)-1-oxo-1,3-dihydro-2H-isoindol-2-yl)-5′-fluorobiphenyl-3-carbonitrile]"
22,95%,"Cn1cc(Br)c(N2Cc3ccc(-c4nnc(C(F)F)o4)cc3C2=O)n1 [Example 250, 2-(4-bromo-1-methyl-1H-pyrazol-3-yl)-6-(5-(difluoro-methyl)-1,3,4-oxadiazol-2-yl)isoindolin-1-one]"
23,100%,"O=C1c2cc(-c3nnc(C(F)F)o3)cc(F)c2CN1C[C@H]1COCCN1S(=O)(=O)c1ccccc1F [Example 251, 6-(5-(difluoromethyl)-1,3,4-oxadiazol-2-yl)-4-fluoro-2-(((3S)-4-((2-fluorophenyl)-sulfonyl)morpholin-3-yl)-methyl)isoindolin-1-one]"

# Same assay, conditions: read-out: HDAC6 inhibitory rate (%) (10 μM)
row,Compound,inhibition at 10 µM
1,"O=C1c2cc(-c3nnc(C(F)F)o3)cc(F)c2CN1C[C@H]1COCCN1CC(F)(F)C(F)(F)C(F)(F)F [Example 229, 6-(5-(difluoromethyl)-1,3,4-oxadiazol-2-yl)-4-fluoro-2-(((3S)-4-(2,2,3,3,4,4,4-heptafluorobutyl)-morpholin-3-yl)methyl)isoindolin-1-one]",100%
